Assay results: the CheMixHub viscosity set

Assay: xn = mol fraction of the nth substance listed

CCNc1ccccc1 + COC(C)(C)C
viscosity [mPa·s], 101 kPa
Conditions	293.15 K	298.15 K	303.15 K	308.15 K	313.15 K	318.15 K
x1 = 0.0583	0.428	0.412	0.395	0.374	0.351	0.325
x1 = 0.1047	0.465	0.445	0.425	0.401	0.376	0.348
x1 = 0.1493	0.503	0.479	0.455	0.429	0.402	0.371
x1 = 0.2021	0.552	0.523	0.495	0.465	0.434	0.4
x1 = 0.2544	0.605	0.57	0.537	0.503	0.469	0.432
x1 = 0.3064	0.663	0.621	0.583	0.544	0.506	–
x1 = 0.3508	0.718	0.668	0.625	0.582	0.54	–
x1 = 0.4031	0.787	0.728	0.678	0.63	0.584	–
x1 = 0.45	0.855	0.787	0.73	0.677	0.625	–
x1 = 0.5021	0.938	0.858	0.793	0.733	0.675	–
x1 = 0.5506	1.022	0.931	0.857	0.789	0.725	–
x1 = 0.6036	1.123	1.017	0.932	0.856	0.784	–
x1 = 0.6519	1.225	1.103	1.006	0.921	0.843	–
x1 = 0.701	1.337	1.197	1.089	0.993	0.907	–
x1 = 0.7521	1.465	1.304	1.181	1.074	0.979	–
x1 = 0.7985	1.592	1.409	1.271	1.153	1.049	–
x1 = 0.8501	1.745	1.536	1.38	1.247	1.132	–
x1 = 0.9006	1.909	1.67	1.493	1.346	1.218	–
x1 = 0.949	2.081	1.81	1.612	1.448	1.306	–

CCNc1ccccc1 + COc1ccccc1
viscosity [mPa·s], 101 kPa
Conditions	293.15 K	298.15 K	303.15 K	308.15 K	313.15 K	318.15 K	323.15 K
x1 = 0.0504	1.109	1.026	0.948	0.881	0.807	0.764	0.709
x1 = 0.1074	1.15	1.059	0.977	0.907	0.83	0.784	0.727
x1 = 0.1541	1.193	1.095	1.009	0.935	0.855	0.805	0.746
x1 = 0.2094	1.234	1.13	1.039	0.961	0.878	0.825	0.763
x1 = 0.2506	1.275	1.164	1.067	0.985	0.9	0.844	0.78
x1 = 0.3006	1.318	1.2	1.098	1.012	0.924	0.864	0.798
x1 = 0.3502	1.364	1.237	1.13	1.04	0.949	0.885	0.816
x1 = 0.4029	1.416	1.279	1.166	1.071	0.976	0.908	0.837
x1 = 0.4504	1.466	1.32	1.201	1.1	1.002	0.931	0.857
x1 = 0.499	1.519	1.363	1.24	1.133	1.031	0.955	0.878
x1 = 0.5504	1.58	1.412	1.281	1.169	1.063	0.981	0.902
x1 = 0.5911	1.64	1.461	1.322	1.204	1.094	1.007	0.924
x1 = 0.6505	1.711	1.517	1.371	1.245	1.131	1.038	0.951
x1 = 0.7027	1.783	1.578	1.421	1.288	1.167	1.069	0.978
x1 = 0.7493	1.853	1.635	1.47	1.331	1.203	1.098	1.004
x1 = 0.7972	1.936	1.699	1.523	1.375	1.242	1.131	1.032
x1 = 0.8509	2.024	1.766	1.578	1.421	1.283	1.164	1.06
x1 = 0.8913	2.103	1.831	1.632	1.466	1.322	1.196	1.087
x1 = 0.9501	2.191	1.9	1.688	1.514	1.363	1.23	1.116

CC(=O)O + O
Conditions	viscosity [mPa·s]
293.15 K, 101 kPa, x1 = 0.0322	1.205
293.15 K, 101 kPa, x1 = 0.0731	1.433
293.15 K, 101 kPa, x1 = 0.1134	1.649
293.15 K, 101 kPa, x1 = 0.1667	1.892
293.15 K, 101 kPa, x1 = 0.2308	2.14
293.15 K, 101 kPa, x1 = 0.3102	2.385
293.15 K, 101 kPa, x1 = 0.4112	2.607
293.15 K, 101 kPa, x1 = 0.7286	2.39
293.15 K, 101.33 kPa, x1 = 0.03226	1.237
293.15 K, 101.33 kPa, x1 = 0.1139	1.696
293.15 K, 101.33 kPa, x1 = 0.2308	2.188
293.15 K, 101.33 kPa, x1 = 0.4118	2.686
293.15 K, 101.33 kPa, x1 = 0.5011	2.784
293.15 K, 101.33 kPa, x1 = 0.5454	2.781
293.15 K, 101.33 kPa, x2 = 0.0132	1.455
295.3 K, 101.33 kPa, x1 = 0.0321	1.135
298.15 K, 101 kPa, x1 = 0.0322	1.073
298.15 K, 101 kPa, x1 = 0.0731	1.27
298.15 K, 101 kPa, x1 = 0.1134	1.452
298.15 K, 101 kPa, x1 = 0.1667	1.644
298.15 K, 101 kPa, x1 = 0.2308	1.866
298.15 K, 101 kPa, x1 = 0.3102	2.086
298.15 K, 101 kPa, x1 = 0.4112	2.272
298.15 K, 101 kPa, x1 = 0.5449	2.353
298.15 K, 101 kPa, x1 = 0.7286	2.105
298.15 K, 101.33 kPa, x1 = 0.016	0.988
298.15 K, 101.33 kPa, x1 = 0.034	1.08
298.15 K, 101.33 kPa, x1 = 0.0684	1.232
298.15 K, 101.33 kPa, x1 = 0.07	1.254
298.15 K, 101.33 kPa, x1 = 0.1242	1.437
298.15 K, 101.33 kPa, x1 = 0.1648	1.633
298.15 K, 101.33 kPa, x1 = 0.2268	1.824
298.15 K, 101.33 kPa, x1 = 0.2289	1.867
298.15 K, 101.33 kPa, x1 = 0.2844	1.986
298.15 K, 101.33 kPa, x1 = 0.3218	2.091
298.15 K, 101.33 kPa, x1 = 0.3273	2.103
298.15 K, 101.33 kPa, x1 = 0.4187	2.248
298.15 K, 101.33 kPa, x1 = 0.436	2.333
298.15 K, 101.33 kPa, x1 = 0.4699	2.305
298.15 K, 101.33 kPa, x1 = 0.5177	2.374
298.15 K, 101.33 kPa, x1 = 0.5367	2.254
298.15 K, 101.33 kPa, x1 = 0.737	2.06
298.15 K, 101.33 kPa, x1 = 0.8576	1.689
298.15 K, 101.33 kPa, x1 = 0.9548	1.223
300.27 K, 101.33 kPa, x1 = 0.03428	1.014
303.15 K, 101 kPa, x1 = 0.0322	0.953
303.15 K, 101 kPa, x1 = 0.0731	1.12
303.15 K, 101 kPa, x1 = 0.1134	1.276
303.15 K, 101 kPa, x1 = 0.1667	1.452
303.15 K, 101 kPa, x1 = 0.2308	1.634
303.15 K, 101 kPa, x1 = 0.3102	1.816
303.15 K, 101 kPa, x1 = 0.4112	1.977
303.15 K, 101 kPa, x1 = 0.7286	1.847
303.55 K, 101.33 kPa, x1 = 0.0321	0.956
303.65 K, 101.33 kPa, x1 = 0.03428	0.939
308.15 K, 101 kPa, x1 = 0.0322	0.855
308.15 K, 101 kPa, x1 = 0.0731	1.003
308.15 K, 101 kPa, x1 = 0.1134	1.135
308.15 K, 101 kPa, x1 = 0.1667	1.289
308.15 K, 101 kPa, x1 = 0.2308	1.447
308.15 K, 101 kPa, x1 = 0.3102	1.612
308.15 K, 101 kPa, x1 = 0.4112	1.76
308.15 K, 101 kPa, x1 = 0.5449	1.813
308.15 K, 101 kPa, x1 = 0.7286	1.653
313.15 K, 100 kPa, x1 = 0.1001	0.997
313.15 K, 100 kPa, x1 = 0.2001	1.278
313.15 K, 100 kPa, x1 = 0.2998	1.467
313.15 K, 100 kPa, x1 = 0.3999	1.564
313.15 K, 100 kPa, x1 = 0.4996	1.585
313.15 K, 100 kPa, x1 = 0.5999	1.548
313.15 K, 100 kPa, x1 = 0.7002	1.461
313.15 K, 100 kPa, x1 = 0.7992	1.328
313.15 K, 100 kPa, x1 = 0.9001	1.14
313.15 K, 101 kPa, x1 = 0.0322	0.775
313.15 K, 101 kPa, x1 = 0.0731	0.903
313.15 K, 101 kPa, x1 = 0.1134	1.014
313.15 K, 101 kPa, x1 = 0.1667	1.158
313.15 K, 101 kPa, x1 = 0.2308	1.297
313.15 K, 101 kPa, x1 = 0.3102	1.426
313.15 K, 101 kPa, x1 = 0.4112	1.549
313.15 K, 101 kPa, x1 = 0.5449	1.614
313.15 K, 101 kPa, x1 = 0.7286	1.48
318.15 K, 101 kPa, x1 = 0.0322	0.709
318.15 K, 101 kPa, x1 = 0.0731	0.819
318.15 K, 101 kPa, x1 = 0.1134	0.922
318.15 K, 101 kPa, x1 = 0.1667	1.041
318.15 K, 101 kPa, x1 = 0.2308	1.165
318.15 K, 101 kPa, x1 = 0.3102	1.286
318.15 K, 101 kPa, x1 = 0.4112	1.397
318.15 K, 101 kPa, x1 = 0.5449	1.453
318.15 K, 101 kPa, x1 = 0.7286	1.34
323.15 K, 101 kPa, x1 = 0.0322	0.644
323.15 K, 101 kPa, x1 = 0.0731	0.742
323.15 K, 101 kPa, x1 = 0.1134	0.842
323.15 K, 101 kPa, x1 = 0.1667	0.943
323.15 K, 101 kPa, x1 = 0.2308	1.052
323.15 K, 101 kPa, x1 = 0.3102	1.166
323.15 K, 101 kPa, x1 = 0.4112	1.265
323.15 K, 101 kPa, x1 = 0.5449	1.316
323.15 K, 101 kPa, x1 = 0.7286	1.235
